Square brackets hold non-standard residues; d marks the D form. Peptide text beside a SMILES is read from it. pS = N[C@@H](COP(=O)(O)O)C(=O)O
Columns and labels:
[1] = biological target: T1, FIP200 claw domain K1569A (Homo sapiens, UniProt Q8TDY2, K1569A); assay: ITC with FIP200 claw domain mutant K1569A; details: 20 °C, buffer B pH 7.0, N.D. = no detectable binding
T1 construct: human FIP200 claw domain1490–1594 was cloned; SUMO (N, cleaved yes); made in house; host or cells: Escherichia coli Rosetta (DE3)
T1 sequence (Q8TDY2 1490-1594 K1569A): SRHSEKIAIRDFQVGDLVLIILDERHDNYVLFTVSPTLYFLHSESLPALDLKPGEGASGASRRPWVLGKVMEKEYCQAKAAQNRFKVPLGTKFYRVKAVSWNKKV
Protocol: (§1) DNA fragment of human FIP200 claw domain1490–1594 was cloned into a modified pET28a (Novagen) plasmid, which contained an N-terminal SUMO-tag and a ULP1 protease cleavage site. All mutants were generated using a MutanBEST Kit (TaKaRa) and confirmed by DNA sequencing. The proteins were expressed in Escherichia coli Rosetta (DE3) cells (Novagen) cultured in LB medium at 37 °C to A600 = 1.0 and then shifted to 16 °C for 24 h after induction with 0.2 mM IPTG. Bacterial pellets were resuspended in buffer A (50 mM NaH2PO4 and 1 M NaCl, pH 7.0) and lysed by sonication. The crude lysate was then centrifuged at 14,000 rpm for 30 min at 4 °C. The supernatant was applied to a Ni-NTA column (QIAGEN), followed by size-exclusion chromatography using a Superdex 200 (GE Healthcare) column. After cleavage with ULP1 protease overnight at 16 °C to remove the SUMO-tag, an additional purification step was performed with a HiTrap SP FF column. The purified protein was concentrated to ∼20 mg/ml in buffer B (50 mM NaH2PO4, 150 mM NaCl, pH 7.0) and stored at −80 °C.
(§2) ITC assays were performed on a Microcal PEAQ-ITC instrument (Malvern) at 20 °C. The concentrations of proteins were determined spectrophotometrically. […] Thermodynamic data were analyzed with a single binding site model using MicroCal PEAQ-ITC Analysis Software provided by the manufacturer (Malvern).

[2] = biological target: T2, FIP200 claw domain K1568E (Homo sapiens, UniProt Q8TDY2, K1568E); assay: ITC with FIP200 claw domain mutant K1568E; details: 20 °C, buffer B pH 7.0, N.D. = no detectable binding
T2 construct: human FIP200 claw domain1490–1594 was cloned; SUMO (N, cleaved yes); made in house; host or cells: Escherichia coli Rosetta (DE3)
T2 sequence (Q8TDY2 1490-1594 K1568E): as the sequence (Q8TDY2 1490-1594 K1569A) above, with K79E, A80K counted along it
Protocol: as §1, §2

Structure (SMILES): CC(C)[C@H](NC(=O)[C@H](CCC(=O)O)NC(=O)[C@H](Cc1ccccc1)NC(=O)[C@H](CCC(=O)O)NC(=O)[C@H](COP(=O)(O)O)NC(=O)[C@H](CO)NC(=O)[C@@H](NC(=O)CNC(=O)[C@H](CO)NC(=O)[C@@H](N)CO)[C@@H](C)O)C(=O)N[C@H](C(=O)N[C@H](C(=O)N1CCC[C@H]1C(=O)N[C@@H](CCC(=O)O)C(=O)N[C@@H](CCC(=O)O)C(=O)N[C@@H](CCC(N)=O)C(=O)O)[C@@H](C)O)C(C)C [TNIP1_pS123^ long] (H-SSGTS[pS]EFEVVTPEEQ-OH)
- KD [1]: Weak binding
- KD [2]: Weak binding

Source: article PMC11367644, “Structural basis for TNIP1 binding to FIP200 during mitophagy” (The Journal of Biological Chemistry, 2024)
